The text below walks through data of patent publication US20240115557A1, “INHIBITORS OF RNA-GUIDED NUCLEASES AND USES THEREOF” (The Brigham and Women's Hospital, Inc., priority 2022, published 2024).

One series has as its system U2OS.eGFP.PEST cells. Put plainly: CellTiter-Glo cell viability assay, U2OS.eGFP.PEST. Format: cell-based, human. Conditions: 24 h. On the procedure:
(§1) HEK293T cells or U2OS.eGFP.PEST cells were plated in a 96-well plate at the density of 30,000 cells per well or 20,000 cells per well, respectively. The next day, cells were treated with indicated amount of compounds for 24 h. Then, cellular ATP levels were measured using CellTiter-Glo Luminescent Cell Viability Assay (Promega) with an EnVision Multilabel Plate Reader (PerkinElmer) at the integration time of 0.5 s per well.

The target in another series is SpCas9:gRNA complex (Streptococcus pyogenes serotype M1, UniProt Q99ZW2). Put plainly: STD NMR binding assay. Conditions: 20 μM compound, 5 μM SpCas9:gRNA. On the procedure:
All samples were prepared with 20 μM of BRD7586 in a 20 mM […] buffer (pH 7.4) in D2O with or without 5 μM of SpCas9:gRNA in a 3 mm NMR tube. Experiments were performed on a 600 MHz (^19F: 564.71 MHz) Bruker AVANCE III NMR spectrometer equipped with a 5 mm QCI-F CryoProbe and a SampleJet for automated sample handling. To acquire the spectra, a standard one-pulse STD experiment with WALTZ-16 for proton decoupling during acquisition, a 5 s recycle delay, and 256 scans were used. All spectra were recorded at 280 K. NMR data were apodized with a 1-Hz exponential function prior to Fourier transformation. All spectra were baseline corrected, and peak widths and intensities were extracted using the automated line-fitting feature provided with the MNova software package.

Series [1] addresses T1, SpCas9 (Streptococcus pyogenes serotype M1, UniProt Q99ZW2). Put plainly: Target engagement in live cells (photo-crosslinking, pull-down). Format: cell-based. Conditions: HEK293T, 20 μM probe, 20 μM competitor. On the procedure: HEK293T cells were plated in a 6-well plate (400,000 cells/well). The next day, cells were transfected with […] of Cas9 expression plasmid (pX330, Addgene #42230)^51 using Lipofectamine 3000 (Invitrogen). Eight hours after transfection, cells were split into 4 wells of a 12-well plate. Total 24 h after transfection, cells were treated with DMSO, Diazirine-BRD7586 (20 μM), or Diazirine-BRD7586 with BRD7586 (both at 20 μM) for 2 h. Cells were washed with PBS once, and 500 μL of fresh PBS was added to each well. The plate was placed on ice, and cells were irradiated with UV (365 nm) for 15 min. After the removal of PBS, cells were stored at−80° C. until further analysis. Thawed cells were suspended in a lysis buffer (25 mM HEPES, 50 mM KCl, 1% Triton X-100, 1× protease inhibitor cocktail, pH 7.4, 200 μL per well), and a brief sonication was performed to ensure cell lysis. Next, click chemistry was performed with 100 μM of biotin-azide, 350 μM of Cu-TBTA, and 1.5 mM of ascorbate. The reaction was proceeded for 2 h at room temperature with mild rotation, then proteins were precipitated by the addition of cold methanol (5-fold volume of the reaction mixture) to the mixture and keeping at −80° C. for >2 h. Protein pellet was obtained by centrifugation for 10 min at 16,000 g and 4° C. […]

For series [2], the target named is T1, SpCas9. As to the kind of experiment: In vitro DNA cleavage assay, SpCas9. It counts as biochemical. Conditions: 0-40 μM. On the procedure: First, Cas9:gRNA complex (30 nM Cas9 (NEB) and 36 nM eGFP targeting gRNA) was formed by mixing each component at a 1:1.2 (Cas9:gRNA) molar ratio and incubating at room temperature for 10 minutes. BRD7586 at doses 0, 5, 10, 20, 30, 40 μM were incubated with Cas9:gRNA complex at 37° C. for 30 minutes at 700 rpm. PCR amplified target eGFP DNA (2 nM) was added after 30 minutes of compound incubation and the mixture was incubated at 37° C. for 30 minutes at 700 rpm. Proteinase K (5 μL) was added and incubated at 37° C. for 30 minutes at 700 rpm to digest the Cas9. The resulting mixtures were purified PCR mini elute kit (Qiagen) and the eluted DNA was quantified by Qubit HS DNA quantification method. Equal amounts of DNA samples were run on a 1% agarose E-gels (invitrogen) for 7 minutes. Images were obtained by an Azure 600 (Azure Biosystem) and quantification of band intensities were performed by ImageJ based analysis.

The next series in a line: Plasma stability assay. Conditions: 2 μM, 50% mouse plasma in PBS, 2 h. Format: in vitro ADME. On the procedure:
The stability of the compound in mouse plasma was assessed following a reported protocol.^50 BRD7586 (2 μM) was incubated with 50% mouse plasma (K2 EDTA, BioIVT) in PBS for 2 h in duplicate. Propantheline was included as a control.

Another series deals with LbCas12a. As to the kind of experiment: eGFP disruption assay, LbCas12a RNP. Format: cell-based. Conditions: RNP delivery, U2OS.eGFP.PEST, 24 h.
The test system of another series is HEK293T cells. As to the kind of experiment: CellTiter-Glo cell viability assay, HEK293T. It counts as cell-based, human. Conditions: 24 h. On the procedure:
as §1
In general terms: In ATP-based viability assays light output follows the ATP content of the culture.

T1 sequence (Q99ZW2 whole entry): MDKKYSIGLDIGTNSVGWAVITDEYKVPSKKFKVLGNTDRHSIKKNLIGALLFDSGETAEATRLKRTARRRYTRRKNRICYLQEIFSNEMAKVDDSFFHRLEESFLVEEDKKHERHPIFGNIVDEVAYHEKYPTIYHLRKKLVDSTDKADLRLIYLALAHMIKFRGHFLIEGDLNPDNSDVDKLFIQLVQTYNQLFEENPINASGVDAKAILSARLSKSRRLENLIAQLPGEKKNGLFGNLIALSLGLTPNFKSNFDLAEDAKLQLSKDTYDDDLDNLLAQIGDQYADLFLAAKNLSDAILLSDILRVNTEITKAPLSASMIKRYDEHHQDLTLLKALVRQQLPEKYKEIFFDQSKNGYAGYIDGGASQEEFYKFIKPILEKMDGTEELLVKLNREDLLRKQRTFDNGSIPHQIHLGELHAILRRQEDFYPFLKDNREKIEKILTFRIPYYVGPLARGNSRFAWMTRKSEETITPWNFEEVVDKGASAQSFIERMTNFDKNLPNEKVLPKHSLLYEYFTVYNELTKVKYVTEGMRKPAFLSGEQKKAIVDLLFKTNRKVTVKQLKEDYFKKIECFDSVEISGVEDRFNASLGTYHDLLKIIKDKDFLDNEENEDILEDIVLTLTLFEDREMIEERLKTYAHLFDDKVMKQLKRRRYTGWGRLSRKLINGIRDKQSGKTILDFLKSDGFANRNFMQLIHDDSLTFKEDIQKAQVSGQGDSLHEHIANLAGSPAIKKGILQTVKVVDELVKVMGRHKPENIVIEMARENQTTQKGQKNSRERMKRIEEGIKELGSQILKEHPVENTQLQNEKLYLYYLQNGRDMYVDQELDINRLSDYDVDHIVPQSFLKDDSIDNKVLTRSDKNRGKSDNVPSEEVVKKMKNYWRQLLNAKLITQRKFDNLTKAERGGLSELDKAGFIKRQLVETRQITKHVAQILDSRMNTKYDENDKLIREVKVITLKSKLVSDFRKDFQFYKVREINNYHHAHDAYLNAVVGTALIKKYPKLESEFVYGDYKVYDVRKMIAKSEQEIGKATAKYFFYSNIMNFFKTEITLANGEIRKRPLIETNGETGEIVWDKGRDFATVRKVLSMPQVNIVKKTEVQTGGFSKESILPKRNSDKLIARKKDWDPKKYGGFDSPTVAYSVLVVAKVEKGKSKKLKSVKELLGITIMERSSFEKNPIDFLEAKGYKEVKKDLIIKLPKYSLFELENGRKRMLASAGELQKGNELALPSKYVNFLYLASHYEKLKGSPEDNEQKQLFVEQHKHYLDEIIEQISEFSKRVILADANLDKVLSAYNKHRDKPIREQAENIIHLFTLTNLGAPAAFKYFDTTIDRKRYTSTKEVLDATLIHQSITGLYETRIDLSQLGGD
SpCas9:gRNA complex, sequence (Q99ZW2 whole entry, one chain of several): as the sequence (Q99ZW2 whole entry) above

In the case of `O=C(CCS(=O)(=O)c1ccc(Cl)cc1)Nc1nc(-c2ccncc2)cs1` [BRD7586], the Cytotoxicity entry with U2OS.eGFP.PEST cells and in the series on HEK293T cells was “without introducing cytotoxicity” each time. Further, the “STD NMR signal” value on SpCas9:gRNA complex is “observed the STD NMR signal from marked protons”. In addition, on SpCas9 [1], the “Target engagement in live cells” value is reported as “demonstrating target engagement in live cells”. Further, the “Inhibition of SpCas9 in in vitro DNA cleavage assay” value on SpCas9 [2] was “dose-dependent inhibition”. Besides, in “Plasma stability assay”, the “Stability in mouse plasma” value came out at 40%. Also, the “Effect on activity of LbCas12a” value with LbCas12a is given as “did not affect the activity”.
